According to patent US11945832B2, “Psilocybin and O-acetylpsilocin, salts and solid state forms thereof” (Terran Biosciences Inc., priority 2021, dated 2024):
Values after ≈ are worked out from the molar mass of the structure shown. “Also recorded” adds a separate entry of the source.

Columns and labels:
[1] = Dynamic vapor sorption (DVS) analysis, hygroscopicity; format: physicochemical; details: for solid form of post-DVS specimen (XRPD): after DVS 5-95-5% RH; for overall water uptake (DVS): 5-95% RH
Procedure: (§1) DVS analysis was carried out using a TA Instruments Q5000 Dynamic Vapor Sorption analyzer. The instrument was calibrated with standard weights and a sodium bromide standard for humidity. Approximately 10-25 mg of sample was loaded into a metal-coated quartz pan for analysis. The sample was analyzed at 25° C. with a maximum equilibration time of one hour in 10% relative humidity (RH) steps from 5 to 95% RH (adsorption cycle) and from 95 to 5% RH (desorption cycle). The movement from one step to the next occurred either after satisfying the equilibrium criterion of 0.01% weight change or, if the equilibrium criterion was not met, after one hour. The percent weight change values were calculated using Microsoft Excel®.
as §1, with “Dynamic Vapor Sorption (DVS)” for “DVS”, “is” for “was”, “is” for “were”, “Excel.” for “Excel®.”

[2] = Hygroscopicity test in relative humidity (RH) jars; format: physicochemical
Procedure: Solids deliquesced within approx. 1 hour of exposure to elevated relative humidity. The sample was capped and placed in a freezer for storage.

[3] = tested on: Psilocybin Induced Head Twitches in Mice; experiment: Psilocybin-induced head-twitch response in mice, 5-HT2A antagonist given i.v. after psilocybin; format: in vivo, C57BL/6J mice; details: for Result (suppression of psilocybin-induced head twitch): 5HT2A antagonist i.v. at T=7 min, summary of Examples 13-21; for effect on psilocybin-induced head twitch (summary of Examples 13-21): administered after psilocybin, compared to vehicle-treated mice, dose not given; for suppression of psilocybin-induced head-twitch response: monitored until 40 min
Excerpt: The head-shake response is elicited by a wide variety of known hallucinogens such as LSD, psilocybin, psilocin, N,N-dimethyltryptamine (DMT), and mescaline as well as serotonin-releasing agents and direct 5-HT2 agonists. […] Later studies have confirmed 5-HT2A receptors are the primary, direct mediators of the response and that the headshake response in rats is essentially the same as head-twitches in mice, at least in regards to similarity in appearance and 5-HT2A receptor dependence.
Male C57BL/6J mice (approximately 25 g) were group housed. Animals were maintained under a 12 h light/dark cycle, at 23° C. with humidity controlled.
Psilocybin was formulated in saline at a concentration of 0.4 mg/mL to give a dose of 2 mg/kg when administered i.p. in a 5 mL/kg dosing volume.
(§2) At T=−60 min, C57BL/6J mice were individually housed into transparent observation cages with bedding removed and left to habituate. At T=−3 min, mice were placed into heated cages at 40° C. At T=0 h, groups of 3 mice were dosed intraperitoneally with psilocybin (2 mg/kg). Following dosing, mice were replaced into the heated cages and head-twitch responses continuously scored for 7 min. After 7 min, mice were intravenously dosed via the lateral tail vein with either vehicle 1 (saline) or volinanserin 1 mg/kg in 5 mL/kg dosing volumes. Mice were replaced into the observation cages and head twitch behavior were monitored until 40 min after agonist dosing. Cumulative head-twitches were measured every 2 minutes until 40 minutes after agonist dosing.
as §2, with “min. […]” for “min. After 7 min, mice were intravenously dosed via the lateral tail vein with either vehicle 1 (saline) or volinanserin 1 mg/kg in 5 mL/kg dosing volumes.”, “behavior was” for “behavior were”, “Cumulative head-twitch behavior was” for “Cumulative head-twitches were”
as §2, with “min. […]” for “min. After 7 min, mice were intravenously dosed via the lateral tail vein with either vehicle 1 (saline) or volinanserin 1 mg/kg in 5 mL/kg dosing volumes.”, “behavior was” for “behavior were”, “Cumulative head-twitch behavior was” for “Cumulative head-twitches were”
as §2, with “min. […]” for “min. After 7 min, mice were intravenously dosed via the lateral tail vein with either vehicle 1 (saline) or volinanserin 1 mg/kg in 5 mL/kg dosing volumes.”, “behavior was” for “behavior were”, “Cumulative head-twitch behavior was” for “Cumulative head-twitches were”
as §2, with “min. […]” for “min. After 7 min, mice were intravenously dosed via the lateral tail vein with either vehicle 1 (saline) or volinanserin 1 mg/kg in 5 mL/kg dosing volumes.”, “behavior was” for “behavior were”, “Cumulative head-twitch behavior was” for “Cumulative head-twitches were”

[4] = Estimated solubilities of psilocybin (solvent aliquot addition, visual inspection); format: physicochemical; details: room temperature
Excerpt: Solubilities of psilocybin in a few solvents were estimated.

[5] = Estimated aqueous solubility of O-acetyl psilocin salts (aliquot addition method); details: bounds printed as 'Small particles present at ≤ x mg/mL'
Procedure: Whether dissolution had occurred was judged by visual inspection after addition of each solvent aliquot. […] Solubility numbers were calculated by dividing the weight of the sample by the total amount of solvent used to dissolve the sample. […] The solubility number is expressed as “greater than or equal to” if dissolution occurred on addition of the first solvent aliquot.

[6] = C57BL/6J mice, psilocybin 2 mg/kg i.p. at T=0, head twitches scored to 40 min
[7] = antagonist 1 mg/kg i.v. 7 min after psilocybin 2 mg/kg i.p.
[8] = antagonist 4 mg/kg i.v. 7 min after psilocybin 2 mg/kg i.p.

Q: Which results are given for `CC(=O)Oc1cccc2[nH]cc(CCN(C)C)c12.O=C(O)C[C@H](O)C(=O)O` [L-malate salt, Form B, O-Acetyl Psilocin Malate]?
A: hygroscopicity (DVS), in words ([1]; 5-85% RH): non-hygroscopic; hydrate formation on DVS ([1]; above 85% RH): no hydrate formation occurred; hydrate formation on DVS ([1]; above 85% RH, listed as Malate B): possible hydrate formation; water uptake (DVS) ([1]; above 85% RH, unit not given): approx. 4.500; solid form of post-DVS specimen (XRPD) [1]: consistent with Form B

Q: With `CC(=O)Oc1cccc2[nH]cc(CCN(C)C)c12.O=C(O)C(O)C(O)C(=O)O` [L-tartrate salt, Form A, O-Acetyl Psilocin Tartrate] as the compound, how does the “hygroscopicity (DVS), in words” value ([1]; 5-85% RH) read?
A: non-hygroscopic

Q: What about the “hydrate formation on DVS” value ([1]; above 85% RH) of the same compound?
A: consistent with hydrate formation

Q: What about the “water uptake (DVS)” value ([1]; above 85% RH) of the same compound?
A: approx. 6%

Q: What about the “hydrate formation on DVS” value ([1]; above 85% RH, listed as Tartrate A) of the same compound?
A: possible hydrate formation

Q: And the “solid form of post-DVS specimen (XRPD)” value [1]?
A: consistent with Form A by XRPD analysis and exhibited additional diffraction peaks

Q: For `CC(=O)Oc1cccc2[nH]cc(CCN(C)C)c12.O=C(O)C(O)C(O)C(=O)O` [L-tartrate, Form A], which hygroscopicity ([1]; 5-85% RH, DVS) is on record?
A: non-hygroscopic

Q: And the “hydrate formation (DVS)” value ([1]; DVS, at high RH)?
A: resulting in hydrate

Q: What about the Water uptake ([1]; above 85% RH, DVS) of the same compound?
A: ~6%

Q: What about the hygroscopicity ([1]; above 85% RH, DVS) of the same compound?
A: hygroscopic

Q: With `CC(=O)Oc1cccc2[nH]cc(CCN(C)C)c12.Cl` [O-acetyl psilocin hydrochloride] as the compound, how does the time to deliquescence ([2]; open vial in 75% RH jar) read?
A: ≤ 1 h

Q: Which “overall water uptake (DVS)” value [1] does the source give for `CC(=O)Oc1cccc2[nH]cc(CCN(C)C)c12.O=C(O)/C=C/C(=O)O` [O-acetylpsilocin-fumarate Form A, O-acetylpsilocin-fumarate] here?
A: approx. 0.1%

Q: And the “hygroscopicity (DVS), in words” value ([1]; whole RH range (5-95% RH))?
A: non-hygroscopic

Q: For `O=c1[nH]c2ccccc2n1CCN1CCN(c2cccc(C(F)(F)F)c2)CC1` [flibanserin], which “Result (suppression of psilocybin-induced head twitch)” value [3, 6] is on record?
A: Partial suppression of head twitch

Q: What about the “effect on psilocybin-induced head twitch (summary of Examples 13-21)” value (from here on “effect on psilocybin-induced head twitch”) [3] of the same compound?
A: partial suppression

Q: And the “suppression of psilocybin-induced head-twitch response” value [3, 7]?
A: partially suppressed

Q: What about the “suppression of psilocybin-induced head-twitch response” value [3, 8] of the same compound?
A: partially suppressed

Q: Which “suppression of psilocybin-induced head-twitch response” value ([3]; antagonist 2 mg/kg i.v. 7 min after psilocybin 2 mg/kg i.p.) does the source give for `O=C(c1ccc(F)cc1)C1CCN(CCn2c(=O)[nH]c3ccccc3c2=O)CC1` [ketanserin] here?
A: completely suppressed

Q: Which results are given for `CC(=O)Oc1cccc2[nH]cc(CCN(C)C)c12.O=C(O)/C=C\C(=O)O` [maleate salt, Form A, O-acetyl psilocin maleate]?
A: overall water uptake (DVS) [1]: approx. 0.8%; solid form of post-DVS specimen (XRPD) [1]: consistent with Form A; hygroscopicity (DVS), in words ([1]; whole RH range (5-95% RH)): non-hygroscopic; hygroscopicity (DVS), in words ([1]; whole RH range (5-95% RH), listed as maleate salt): minimal water sorption

Q: For `CC(=O)Oc1cccc2[nH]cc(CCN(C)C)c12.CS(=O)(=O)O` [mesylate salt, Form A, O-Acetyl Psilocin Mesylate], which “hygroscopicity (DVS), in words” value ([1]; 5-55% RH) is on record?
A: non-hygroscopic

Q: What about the “water uptake (DVS)” value ([1]; above 55% RH) of the same compound?
A: 40%

Q: And the “solid form of post-DVS specimen (XRPD)” value [1]?
A: liquid

Q: For `COc1ccc(NC(=O)Nc2ccc(F)cc2F)cc1-c1c(Br)cnn1C` [nelotanserin], which “Result (suppression of psilocybin-induced head twitch)” value [3, 6] is on record?
A: Partial suppression of head twitch,

Q: What about the “Result (suppression of psilocybin-induced head twitch) at high dose” value ([3]; C57BL/6J mice, psilocybin 2 mg/kg i.p. at T=0, antagonist at high dose (nelotanserin 4 mg/kg i.v.) at T=7 min, head twitches scored to 40 min) of the same compound?
A: full suppression at high dose

Q: What about the “effect on psilocybin-induced head twitch” value [3] of the same compound?
A: partial suppression

Q: And the “suppression of psilocybin-induced head-twitch response” value [3, 7]?
A: partially suppressed

Q: What about the “suppression of psilocybin-induced head-twitch response” value [3, 8] of the same compound?
A: completely suppressed; also recorded: completed suppressed

Q: For `CC(=O)Oc1cccc2[nH]cc(CCN(C)C)c12.O=P(O)(O)O` [phosphate salt (Forms A+B), O-acetyl psilocin phosphate], which “hygroscopicity by RH jars, in words” value ([2]; RH jars) is on record?
A: low

Q: For `N#Cc1c[nH]c2c(C(=O)N3CCN(CCc4ccc(F)cc4)CC3)cccc12` [pruvanserin], which “Result (suppression of psilocybin-induced head twitch)” value [3, 6] is on record?
A: Full suppression of head twitch

Q: And the “effect on psilocybin-induced head twitch” value [3]?
A: full ending

Q: And the “suppression of psilocybin-induced head-twitch response” value [3, 7]?
A: completely suppressed

Q: Which results are given for `CN(C)CCc1c[nH]c2cccc(OP(=O)(O)O)c12` [psilocybin]?
A: solid form of post-DVS specimen (XRPD) [1]: converted to a hydrate Form B; also recorded: Crystalline Form B (hydrate); solubility ([4]; organic solvent or mixture, thermodynamic from solid, 1,4-dioxane): < 1000 µg/mL; solubility ([4]; organic solvent or mixture, thermodynamic from solid, 2-propanol (2-PrOH)): < 1000 µg/mL; solubility ([4]; organic solvent or mixture, thermodynamic from solid, Acetone): < 1000 µg/mL; solubility ([4]; organic solvent or mixture, thermodynamic from solid, Acetonitrile (ACN)): < 1000 µg/mL; solubility ([4]; organic solvent or mixture, thermodynamic from solid, Dichloromethane (DCM)): < 1000 µg/mL; solubility ([4]; organic solvent or mixture, thermodynamic from solid, Ethanol (EtOH)): < 1000 µg/mL; solubility ([4]; organic solvent or mixture, thermodynamic from solid, Ethyl acetate (EtOAc)): < 1000 µg/mL; solubility ([4]; organic solvent or mixture, thermodynamic from solid, Methanol (MeOH)): 11000 µg/mL (≈ 38.7 mM); solubility ([4]; organic solvent or mixture, thermodynamic from solid, Tetrahydrofuran (THF)): < 1000 µg/mL; solubility ([4]; thermodynamic from solid, Water): 4000 µg/mL (≈ 14.1 mM)

Q: For `Cc1nc2sccn2c(=O)c1CCN1CCC(=C(c2ccc(F)cc2)c2ccc(F)cc2)CC1` [ritanserin], which “Result (suppression of psilocybin-induced head twitch)” value [3, 6] is on record?
A: Full suppression of head twitch

Q: What about the “effect on psilocybin-induced head twitch” value [3] of the same compound?
A: full ending

Q: And the “suppression of psilocybin-induced head-twitch response” value [3, 7]?
A: completely suppressed

Q: What does the source list for `COc1cccc([C@H](O)C2CCN(CCc3ccc(F)cc3)CC2)c1OC` [volinanserin]?
A: Result (suppression of psilocybin-induced head twitch) [3, 6]: Full suppression of head twitch; effect on psilocybin-induced head twitch (summary of Examples 13-21) [3]: full ending; suppression of psilocybin-induced head-twitch response [3, 7]: completely suppressed

Q: With Maleate as the compound, how does the “Water solubility” value [5] read?
A: >50000 µg/mL
